Experimental data taken from patent US20240293443A1, “HEPARAN SULFATE MIMETICS TO IMPROVE GLUCOSE CLEARANCE” (The Regents of the University of California, priority 2021, published 2024).
“Also recorded” adds a separate entry of the source.

How the values were obtained:
Ndst1−/− adipocytes = experiment: 3[H]-2-deoxy-glucose uptake in Ndst1−/− MEF-derived adipocytes; format: cell-based, mouse; conditions: for glucose clearance in differentiated adipocytes: Ndst1−/−, Wnt inhibitor treatment during the first 3 days of adipogenesis
Description: Cells were seeded on a 24-well plate at a density of 30,000 cells/cm^2. Cells were allowed to grow to confluence for 48 hours. At this point (Day 0), the media were removed, cells were washed with PBS, and differentiation media with or without heparin (100 μg/ml) were added. […] On Day 3 of differentiation, cells were washed with PBS and treated with insulin media, which consisted of 2 μM insulin, and 1 μM rosiglitazone in DMEM with 10% FBS. The cellular cholesterol and triglyceride content was determined after lysing cells in 0.1M NaOH. Total plasma cholesterol and plasma triglyceride levels (Sekisui Diagnostics) and protein levels (BCA protein assay) were determined using commercially available kits. Cells are washed twice with PBS and placed into DMEM with 2 mg/mL BSA for two hours. […] The insulin solution is then removed and the cells are washed twice with transport solution before radioactive transport solution is added, which consists of 0.25 μCi/well of 3[H]-2-deoxy-glucose and 0.025 mM 2-deoxy-glucose. After a 10-minute incubation in the radioactive transport solution, it is removed and the, the glucose uptake is halted by addition of ice cold PBS. The cold PBS is removed and each well is washed twice with PBS. Then, lysis buffer consisting of 0.1 M NaOH and 0.1% w/v sodium dodecyl sulfate, is added to each well. The radioactive lysate was transferred to a scintillation vial containing 5 mL of Ultima Gold liquid scintillation fluid and analyzed using a liquid Scintillation counter. Cells were differentiated for 6 days using the standard adipogenic differentiation protocol described above. Each day on Days 0-3, the cells were washed with PBS and incubated with 200 μL solution of DMEM containing GPs at the indicated concentrations added for 1 hour at 37° C. After this time, the media were removed, the cells were washed with PBS, and fresh differentiation media were added. On Day 6, the adipocytes were subjected to the ^3[H]-2-deoxy-glucose uptake assay and the spent media were analyzed for glucose and lactate content as described above.

WT adipocytes [1] = experiment: 3[H]-2-deoxy-glucose uptake in WT MEF-derived adipocytes; format: cell-based, mouse; conditions: for glucose clearance in differentiated adipocytes: WT, Wnt inhibitor treatment during the first 3 days of adipogenesis
Description: Cells were seeded on a 24-well plate at a density of 30,000 cells/cm^2. Cells were allowed to grow to confluence for 48 hours. At this point (Day 0), the media were removed, cells were washed with PBS, and differentiation media with or without heparin (100 μg/ml) were added. […] On Day 3 of differentiation, cells were washed with PBS and treated with insulin media, which consisted of 2 μM insulin, and 1 μM rosiglitazone in DMEM with 10% FBS. The cellular cholesterol and triglyceride content was determined after lysing cells in 0.1M NaOH. Total plasma cholesterol and plasma triglyceride levels (Sekisui Diagnostics) and protein levels (BCA protein assay) were determined using commercially available kits.
Cells are washed twice with PBS and placed into DMEM with 2 mg/mL BSA for two hours. […] The insulin solution is then removed and the cells are washed twice with transport solution before radioactive transport solution is added, which consists of 0.25 μCi/well of 3[H]-2-deoxy-glucose and 0.025 mM 2-deoxy-glucose. After a 10-minute incubation in the radioactive transport solution, it is removed and the, the glucose uptake is halted by addition of ice cold PBS. The cold PBS is removed and each well is washed twice with PBS. Then, lysis buffer consisting of 0.1 M NaOH and 0.1% w/v sodium dodecyl sulfate, is added to each well. The radioactive lysate was transferred to a scintillation vial containing 5 mL of Ultima Gold liquid scintillation fluid and analyzed using a liquid Scintillation counter.
Cells were differentiated for 6 days using the standard adipogenic differentiation protocol described above. Each day on Days 0-3, the cells were washed with PBS and incubated with 200 μL solution of DMEM containing GPs at the indicated concentrations added for 1 hour at 37° C. After this time, the media were removed, the cells were washed with PBS, and fresh differentiation media were added. On Day 6, the adipocytes were subjected to the ^3[H]-2-deoxy-glucose uptake assay and the spent media were analyzed for glucose and lactate content as described above.

lipoprotein lipase (LPL) = molecular target: T1, lipoprotein lipase (LPL) (Bos taurus, UniProt P11151); experiment: Lipoprotein lipase (LPL) binding to adipocytes; format: cell-based, Bovine; conditions: exogenous heparin 100 μg/ml
T1 construct: gift of Gunilla Olivecrona, Umea University
T1 sequence (P11151 29-478): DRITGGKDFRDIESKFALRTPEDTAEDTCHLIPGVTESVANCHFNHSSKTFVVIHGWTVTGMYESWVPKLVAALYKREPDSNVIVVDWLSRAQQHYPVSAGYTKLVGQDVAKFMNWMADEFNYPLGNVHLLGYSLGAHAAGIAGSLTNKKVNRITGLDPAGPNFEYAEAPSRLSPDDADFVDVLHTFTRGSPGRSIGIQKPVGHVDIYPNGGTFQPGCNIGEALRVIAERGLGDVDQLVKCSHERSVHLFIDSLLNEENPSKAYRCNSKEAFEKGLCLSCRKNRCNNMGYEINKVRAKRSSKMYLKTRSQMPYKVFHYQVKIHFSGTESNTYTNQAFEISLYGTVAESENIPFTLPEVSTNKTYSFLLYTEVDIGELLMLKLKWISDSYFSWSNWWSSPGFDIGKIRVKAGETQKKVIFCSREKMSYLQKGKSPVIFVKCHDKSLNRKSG
Description: Bovine LPL generously provided by Gunilla Olivecrona (Department of Biomedical Sciences, Umea University, Umea Sweden)^42. Enzyme activity was determined using ^3H radiolabeled substrate as previously described^43. Molar ratio of biotin to LPL was determined in a HABA displacement assay (Pierce Biotin Quantitation Kit).
LPL binding assays were performed similar to as previously described. Cells were harvested using Accutase cell detachment solution (Millipore) and washed twice with PBS. Cells were incubated for 15 min at 37° C. in serum free media in the absence or presence of 5 mU/ml each of recombinant heparin lyases 1, 11, and 111. Treated and untreated cells were washed twice with PBS, chilled on ice for 20 min and incubated with 50 nM biotinylated LPL in 1% BSA supplemented PBS at 4° C. for 1 hour. Following the incubation, cells were washed twice in ice-cold PBS and incubated with 0.4 μg/mL Phycoerythrin-Cy5 conjugated Streptavidin in 1% BSA supplemented PBS at 4° C. A set of cells was exposed only to Phycoerythrin-Cy5 conjugated Streptavidin and was used as background control. Cells were washed twice with PBS and analyzed by flow cytometry.

[2] = system: Primary adipocytes derived from murine subcutaneous white adipose tissue (sWAT) stromal vascular cells; experiment: Glucose uptake in primary adipocytes from sWAT stromal vascular cells; format: cell-based; conditions: co-incubated with heparin during adipogenesis
Description: Around 1 g subcutaneous WAT from 8- to 14-week-old, male or female mice was dissected, washed, minced, and digested in 1 ml DMEM containing 0.25 U/ml collagenase D (Sigma) at 37° C. with constant agitation at 200 rpm for 25-35 min. To stop the digestion, complete DMEM including 10% FBS and 1% P/S was added to the digestion mixture. Then the cells were filtered through a 100 μm cell strainer. After centrifugation at 200×g for 10 min, the floating adipocyte fraction (AF) was collected for protein isolation, while the pellet containing stromal vascular fraction (SVF) was resuspended in fresh complete medium and seeded on a 10-cm cell culture dish. At a confluency of ˜80%, cells were seeded on 6- and 12-well plates and grown to confluency for differentiation. Differentiation was induced by using complete DMEM/F12 media supplemented with 1 μM dexamethasone, 0.5 mM isobutylmethylxanthine (IBMX), 5 μg/ml insulin, and 1 μM rosiglitazone. Three days after induction, medium was changed to complete DMEM/F12 supplemented with 5 μg/ml insulin for two days, afterwards cells were maintained in complete DMEM/F12 medium. […]
Cells are washed twice with PBS and placed into DMEM with 2 mg/mL BSA for two hours. […] The radioactive lysate was transferred to a scintillation vial containing 5 mL of Ultima Gold liquid scintillation fluid and analyzed using a liquid Scintillation counter.

Wnt5a = molecular target: T2, Wnt5a (Homo sapiens, UniProt P41221); experiment: Wnt binding to HS-mimetics via ELISA (Wnt5a); conditions: immobilized Wnt5a, biotinylated glycopolymer or heparin
T2 sequence (P41221 62-380): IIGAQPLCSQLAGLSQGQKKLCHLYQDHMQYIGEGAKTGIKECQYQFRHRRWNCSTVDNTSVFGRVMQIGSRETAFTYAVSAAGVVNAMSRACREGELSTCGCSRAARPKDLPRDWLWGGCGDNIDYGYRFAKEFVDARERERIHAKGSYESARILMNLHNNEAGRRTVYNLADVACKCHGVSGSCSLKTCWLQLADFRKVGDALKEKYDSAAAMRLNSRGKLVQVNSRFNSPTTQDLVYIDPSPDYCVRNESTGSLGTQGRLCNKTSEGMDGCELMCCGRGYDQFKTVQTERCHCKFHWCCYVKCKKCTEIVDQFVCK
Description: (§1) Wnt5a and Wnt10b proteins (10 nM solution in 1% (w/v) BSA/DPBS) were immobilized on 96-well tissue culture treated plates overnight at 4° C. The plates were washed twice with 0.05% (v/v) Tween-20 in DPBS and blocked with 1% (w/v) BSA/DPBS for 6 hours at room temperature. Biotinylated HS-mimetic glycopolymers GP or heparin were added to the wells at increasing concentrations in 1% (w/v) BSA/DPBS. After 1 hour incubation, the wells were washed three times with 0.05% Tween-20 in DPBS. Streptavidin-HRP (1:1000 in 1% BSA/DPBS) was added for 45 min at ambient temperature. The wells were again washed three times in 0.05% Tween-20 in DPBS, followed by treatment with 100 μL of TMB substrate for 2-5 min before quenching with 100 μL of 2N sulfuric acid. Absorbance (450 nm) was measured using a Molecular Devices SpectraMax plate reader.

WT adipocytes [3] = experiment: Glucose and lactate in spent media (YSI), adipocytes differentiated with heparin; format: cell-based, mouse; conditions: heparin 100 μg/ml during differentiation; spent media day 6
Description: Cells were seeded on a 24-well plate at a density of 30,000 cells/cm^2. Cells were allowed to grow to confluence for 48 hours. At this point (Day 0), the media were removed, cells were washed with PBS, and differentiation media with or without heparin (100 μg/ml) were added. Differentiation media consisted of 0.1 μM dexamethasone, 450 μM 3-isobutyl-1-methylxanthine, 2 μM insulin, and 1 μM rosiglitazone in DMEM supplemented with 10% FBS. On Day 3 of differentiation, cells were washed with PBS and treated with insulin media, which consisted of 2 μM insulin, and 1 μM rosiglitazone in DMEM with 10% FBS. The cellular cholesterol and triglyceride content was determined after lysing cells in 0.1M NaOH. Total plasma cholesterol and plasma triglyceride levels (Sekisui Diagnostics) and protein levels (BCA protein assay) were determined using commercially available kits.
MEFs are differentiated to day 6 into adipocytes in a 24 well plate, and on day six (6) 500 μL of media is collected from each well in an Eppendorf tube and immediately frozen in liquid nitrogen. […] Then, the filtrate is analyzed using a YSl 2900, where the sample is loaded into two wells of a 96 well plate, 200 μL media per well. The samples are then analyzed for lactate and glucose concentration.

WT adipocytes [4] = experiment: [9,10-3H(N)]-Palmitate (FFA) uptake in adipocytes; format: cell-based, mouse; conditions: chemical inhibition of HS (heparin 100 μg/ml)
Wnt10b = Wnt10b (Homo sapiens, UniProt O00744); experiment: Wnt binding to HS-mimetics via ELISA (Wnt10b); conditions: immobilized Wnt10b, biotinylated glycopolymer or heparin
Description: as §1

Wnt10b, sequence (O00744 29-389, species assumed): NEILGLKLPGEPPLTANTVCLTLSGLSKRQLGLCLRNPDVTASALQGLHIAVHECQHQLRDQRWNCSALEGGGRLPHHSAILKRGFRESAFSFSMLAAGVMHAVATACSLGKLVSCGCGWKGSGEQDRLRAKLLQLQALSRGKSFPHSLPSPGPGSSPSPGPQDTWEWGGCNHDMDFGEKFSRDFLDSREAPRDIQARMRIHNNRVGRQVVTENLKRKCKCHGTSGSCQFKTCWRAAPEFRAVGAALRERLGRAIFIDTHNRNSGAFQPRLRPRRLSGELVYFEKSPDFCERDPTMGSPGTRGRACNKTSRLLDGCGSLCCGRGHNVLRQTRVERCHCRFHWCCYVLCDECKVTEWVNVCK

Q: For `Cc1cc(-c2ccc(CC(=O)Nc3ccc(-c4cccnc4)cc3)cc2)ccn1` [Wnt-C59], which “glucose clearance in differentiated adipocytes” value (Ndst1−/− adipocytes) is on record?
A: enhanced glucose clearance capacity

Q: What about the “toxicity to WT adipocytes” value (WT adipocytes [1]; 10 nM) of the same compound?
A: toxic

Q: And the “glucose clearance in differentiated adipocytes” value (WT adipocytes [1])?
A: no effect on cellular glucose clearance

Q: For `Oc1nc(-c2ccc(C(F)(F)F)cc2)nc2c1CSCC2` [XAV-939], which “glucose clearance in differentiated adipocytes” value (Ndst1−/− adipocytes) is on record?
A: enhanced glucose clearance

Q: And the “glucose clearance in differentiated adipocytes” value (WT adipocytes [1])?
A: enhanced glucose clearance

Q: Which results are given for heparin?
A: binding of lipoprotein lipase (LPL) (lipoprotein lipase (LPL)): reduced binding; glucose uptake [2]: reduced glucose uptake; EC50 (Wnt5a): 28.2 nM; glucose levels in the culture medium (WT adipocytes [3]): high glucose levels remaining; lactate production (WT adipocytes [3]): decreased lactate production; FFA uptake (WT adipocytes [4]): did not negatively affect FFA uptake; 3[H]-2-deoxy-glucose uptake (Ndst1−/− adipocytes; Ndst1−/− MEFs treated 1 hour at 37° C. on day 0 to 3, differentiated adipocytes day 6): had no effect; also recorded: no effect on cellular glucose uptake; effect of exogenous heparin on glucose uptake (Ndst1−/− adipocytes; Ndst1−/− cells treated with exogenous heparin): did not have an additive effect on glucose uptake; reduction of glucose uptake (WT adipocytes [1]; WT cells treated with exogenous heparin (100 μg/ml) during differentiation, basal): 45%; differential in glucose uptake versus WT after insulin stimulation (WT adipocytes [1]; WT cells with heparin, insulin stimulated): −44%; glucose uptake at day 6 (WT adipocytes [1]; heparin 100 μg/ml from start, cells treated up to day 3 and beyond): significantly reduced glucose uptake; glucose uptake, acute treatment of mature adipocytes (WT adipocytes [1]; heparin 100 μg/ml simultaneously with 3[H]-2-deoxy-glucose administration, WT and Ndst1−/−): unaltered glucose uptake; glucose uptake at day 6 (WT adipocytes [1]; heparin added after day 4 of differentiation): can no longer impact glucose uptake; glucose uptake potential relative to untreated WT adipocytes (WT adipocytes [1]; soluble heparin 100 μg/ml): reduces glucose uptake potential; EC50 (Wnt10b): 30.1 nM
